Holding throughout (assay type): cell-based, human
One assay deals with PBMCs from CLL patients. In words: Primary screening of FDA approved drug library, TitreGlo/CellTiter-Glo cell viability, PBMCs from CLL patients. Particulars: for inhibition at 10 µM: Homo sapiens, PBMC, read-out: % Inhibition, CLL Average.
Another assay relates to PBMCs from CML patients. Description: Primary screening of FDA approved drug library, TitreGlo/CellTiter-Glo cell viability, PBMCs from CML patients. Particulars: for inhibition at 10 µM: Homo sapiens, PBMC, read-out: % Inhibition, CML Average.
The test system of a further assay is PBMCs from AML patients. In words: Primary screening of FDA approved drug library, TitreGlo/CellTiter-Glo cell viability, PBMCs from AML patients. Particulars: for inhibition at 10 µM: Homo sapiens, PBMC, read-out: % Inhibition, AML Average.
A further assay concerns PBMCs from ALL patients. In words: Primary screening of FDA approved drug library, TitreGlo/CellTiter-Glo cell viability, PBMCs from ALL patients. Particulars: for inhibition at 10 µM: Homo sapiens, PBMC, read-out: % Inhibition, ALL Average.
The mark [1] stands for this setting: compound 10 uM, PBMCs from CLL patients, average over patients, relative to high control (0%) and no-cell low control (100%).
[2] abbreviates: compound 10 uM, PBMCs from CML patients, average over patients, relative to high control (0%) and no-cell low control (100%).
Setting [3] is: compound 10 uM, PBMCs from AML patients, average over patients, relative to high control (0%) and no-cell low control (100%).
Where [4] appears, read: compound 10 uM, PBMCs from ALL patients, average over patients, relative to high control (0%) and no-cell low control (100%).

Counter-ions that a name gives are not always drawn. Like-named read-outs stand apart in the source and are kept apart here. Starred links: 1 amine or outer side, 2 acyl side, 3 side chain; linkers in the order of their positions; H or OH if unused. Positions of bridges follow the written chain, without caps; N, C: chain ends. Non-standard residues stand in square brackets, D forms with d. Residues, ends and D or L forms follow the SMILES beside them. Chains are numbered I, II in the order given. Actinocin(9to1) = Cc1c2oc3c(C)ccc(C(=O)[*:1])c3nc-2c(C(=O)[*:2])c(N)c1=O; NMeV = CN[C@H](C(=O)O)C(C)C; Sar = CNCC(=O)O

Description for PBMCs from ALL patients: (§1) Whole blood was taken from experimental group patients and control group patients. The collected blood was transferred to EDTA tubes with a 5 mL pipette and a pipette aid and then to each EDTA tubes corresponding 50 ml centrifuge tubes. All the blood from one patient was placed into 1 tube (50 mL) and an equal volume of PBS was added to the 50 mL centrifuge tube. The sample was then mixed by either inverting the tube or pipetting up & down. The blood was transferred into tow 50 mL leucosep tube and centrifuged at room temperature (18-20° C.) for 15 minutes at 800×g with the brake turned off and acceleration at 2/deceleration at zero. After centrifugation, the white cell interface (buffy coat) was removed by pasture pipette and transferred to the new appropriately labelled 50 ml centrifuge tube. 25 mL PBS was added to the white cell interface (buffy coat) and the mix was centrifuged for 10 minutes at room temperature at 400×g with the brake off and acceleration at 4 & deceleration at 2. The supernatant was discarded from the pellet carefully in an appropriate manner. The pellet was washed another time with 20 mL by centrifugation for 5 minutes as above. The pellet was re-suspended in 5 mL and cells were counted using V-Cell. The cells were then either used directly as fresh for screening or frozen in liquid nitrogen in 10% DMSO/RPMPI media until use.
(§2) The assay used for TitreGlo (Promega) to measure cell viability based on the ATP production. […] The assay was developed in a 384-well plate with 2500 cell/well in 50 uL total volume. Alternatively, the assay could be developed in a 96-well plate with 10,000 cells/well. […] Z′ as a statistics factor was calculated as follows:
(§3) Each compound from the ENZO FDA SCREEN-WELL® FDA approved drug library V2 (0.10 μl in 100% DMSO) was transferred to white, 384-well, PS, Cellstar plates (Greiner Bio-One) using the Echo® Liquid Handler (Labcyte Inc.). Each plate contained one column for the High/Low Controls. The Low Control (1% DMSO v/v in column 23, no cells) and the High Control (final 1% DMSO v/v in column 24, with cells) were employed to calculate the Z′ for each assay plate. […] At 24 h post seeding, baseline growth was assessed using a control plate and CellTiter-Glo (CTG) reagent (Promega Corporation). Briefly, 20 μL/well of CTG detection mix was added and plates were read using an EnVision Multimode plate reader (PerkinElmer) after 10 min incubation in the dark. The raw luminescence signal was normalized in ActivityBase XE with outliers in control wells eliminated according to the 3-sigma method to yield percentage of cell viability by using the High Control (HC) containing cells in 1% DMSO v/v (Carl Roth) and the Low Control containing 1% DMSO v/v (Carl Roth). All Medium-Throughput Screening experiments were performed in duplicate for each patient. […] The raw luminescence signal was processed using Graph Pad Prism (Graph Pad Software Inc.) with outliers in control wells eliminated according to the 3-sigma method. The dose-response curves were analyzed using a 4 parameter sigmoidal fit to obtain plausible results in the case non-sigmoidal dose-response curves.
(§4) The Screen-Well FDA approved drug library was screened, which contains 780 approved drugs. […] The final DMSO concentration in the assay plate was 0.1% of total volume. […] The average of all four control samples was then calculated and used to determine the positive “hits” in patients' samples.
(§5) Each average patient samples were plotted against average of the control samples to identify the positive hits.
Description for PBMCs from AML patients: as §1, §2, §3, §4, §5
Description for PBMCs from CLL patients: as §1, §2, §3, §4, §5
Description for PBMCs from CML patients: as §1, §2, §3, §5
Samples from 4 patients were screened against the FDA approved drug library where the Negative Control (High control) contained cells treated with DMSO and the Positive Control (Low control) were based using no cells. The screening was carried out in 96 well plates. The raw luminescence counts were normalized and the % Inhibition was calculated relative to the high control (0% Inhibition) and the low control (100% Inhibition).

The inhibition is the relative decrease from the control value, in per cent. For `CC(C)(C)C(=O)OCOP(=O)(COCCn1cnc2c(N)ncnc21)OCOC(=O)C(C)(C)C` [Adcfovir Dipivoxil], the inhibition at 10 µM with PBMCs from CLL patients (setting [1]) came to 43.9%; in the assay on PBMCs from CML patients (setting [2]), 63.7%; with PBMCs from AML patients (setting [3]), 72.8%; with PBMCs from ALL patients (setting [4]), 96%.
The like results for `CN1CCc2cccc3c2[C@H]1Cc1ccc(O)c(O)c1-3` [Apomorphine HCl Hemihydrate] were, in that order, 27.9%, 89.4%, 39.5% and 37.3%.
For `CC(=O)OC[C@H]1O[C@@H]([S-])[C@H](OC(C)=O)[C@@H](OC(C)=O)[C@@H]1OC(C)=O.CCP(CC)CC.[Au+]` [Auranofin], in the assay with PBMCs from CLL patients (setting [1]), the “% Inhibition, CLL Average” value was found to be 96.0%. Also, the “% Inhibition, CML Average” value in the assay with PBMCs from CML patients (setting [2]) was 94.9%. Also, the “% Inhibition, AML Average” value in the assay with PBMCs from AML patients (setting [3]) was 96.7%. Further, the “% Inhibition, ALL Average” value with PBMCs from ALL patients (setting [4]) is given as 102.9%.
For the compound `Clc1ccc(CCC(Cn2ccnc2)Sc2c(Cl)cccc2Cl)cc1` (centres unmarked) [Butoconazole Nitrate], the inhibition at 10 µM in the assay on PBMCs from CLL patients (setting [1]) turned out to be 44.1%; with PBMCs from CML patients (setting [2]), 58.5%; in the assay with PBMCs from AML patients (setting [3]) it was 46.6%; with PBMCs from ALL patients (setting [4]) it was 40.7%.
On the same counts, the results for `[H]/N=C(\N/C(=N/[H])NCCCCCCNC(=N)NC(=N)Nc1ccc(Cl)cc1)Nc1ccc(Cl)cc1` [Chlorhexidine Dihydrochloride] are 70.3%, 59.9%, 26.9% and 53.6%.
On the same counts, the results for `C[C@@H](NCCCc1cccc(C(F)(F)F)c1)c1cccc2ccccc12` [Cinacalcet HCl] are 28.6%, 63.3%, 43.2% and 41.9%.
On the same counts, the results for `Nc1nc(Cl)nc2c1ncn2[C@@H]1O[C@H](CO)[C@@H](O)[C@@H]1F` [Clofarabine] are 41.3%, 21.9%, -20.6% and 68.1%.
With `Nc1ccn([C@@H]2O[C@H](CO)[C@@H](O)[C@@H]2O)c(=O)n1` [Cytarabine], the inhibition at 10 µM was 26.6% in the assay with PBMCs from CLL patients (setting [1]), 58.8% in the assay with PBMCs from CML patients (setting [2]), 66.1% in the assay with PBMCs from AML patients (setting [3]) and 49.2% in the assay on PBMCs from ALL patients (setting [4]).
On the same counts, the results for `Cc1c2oc3c(C)ccc(C(=O)N[C@@H]4C(=O)N[C@H](C(C)C)C(=O)N5CCC[C@H]5C(=O)N(C)CC(=O)N(C)[C@@H](C(C)C)C(=O)O[C@@H]4C)c3nc-2c(C(=O)N[C@@H]2C(=O)N[C@H](C(C)C)C(=O)N3CCC[C@H]3C(=O)N(C)CC(=O)N(C)[C@@H](C(C)C)C(=O)O[C@@H]2C)c(N)c1=O` [Dactinomycin (=Actinomycin D), Dactinomycin] (I: T[dV]P[Sar][NMeV] / II: T[dV]P[Sar][NMeV]; ester I:1-I:C, II:1-II:C; linker I:N-II:N via Actinocin(9to1)) are 42.9%, 24.4%, 60.4% and 66.5%.
The like results for `COc1cccc2c1C(=O)c1c(O)c3c(c(O)c1C2=O)C[C@@](O)(C(C)=O)C[C@@H]3O[C@H]1C[C@H](N)[C@H](O)[C@H](C)O1` [Daunorubicin HCl] were, in that order, 65.5%, 67.6%, 64% and 78.4%.
Consider `C[C@H]1O[C@@H](O[C@H]2[C@@H](O)C[C@H](O[C@H]3[C@@H](O)C[C@H](O[C@H]4CC[C@@]5(C)[C@H](CC[C@@H]6[C@@H]5C[C@@H](O)[C@]5(C)[C@@H](C7=CC(=O)OC7)CC[C@]65O)C4)O[C@@H]3C)O[C@@H]2C)C[C@H](O)[C@@H]1O` [Digoxin], for which the inhibition at 10 µM in the assay on PBMCs from CLL patients (setting [1]) is 30.1%; in the assay on PBMCs from CML patients (setting [2]) it was 76.8%; in the assay on PBMCs from AML patients (setting [3]) it was -33.2%; with PBMCs from ALL patients (setting [4]), 32%.
On the same counts, the results for `CCN(CC)C(=S)SSC(=S)N(CC)CC` [Disulfiram] are -45.4%, 92.4%, 64% and 91.5%.
Take `CC(CCc1ccc(O)cc1)NCCc1ccc(O)c(O)c1` (centres unmarked) [Dobutamine HCl]: the inhibition at 10 µM in the assay on PBMCs from CLL patients (setting [1]) was -5%; in the assay with PBMCs from CML patients (setting [2]) it was 25.3%; with PBMCs from AML patients (setting [3]), -10.5%; in the assay on PBMCs from ALL patients (setting [4]) it was 79.6%.
On to `COc1cccc2c1C(=O)c1c(O)c3c(c(O)c1C2=O)C[C@@](O)(C(=O)CO)C[C@@H]3O[C@H]1C[C@H](N)[C@H](O)[C@H](C)O1` [Doxorubicin HCl], for which the inhibition at 10 µM is 67.2% in the assay on PBMCs from CLL patients (setting [1]), 36.7% in the assay with PBMCs from CML patients (setting [2]), 73.6% in the assay on PBMCs from AML patients (setting [3]) and 72.6% in the assay with PBMCs from ALL patients (setting [4]).
On the same counts, the results for `COc1cccc2c1C(=O)c1c(O)c3c(c(O)c1C2=O)C[C@@](O)(C(=O)CO)C[C@@H]3O[C@H]1C[C@H](N)[C@@H](O)[C@H](C)O1` [Epirubicin HCl] are 64.3%, 5%, 67.1% and 74.4%.
Take `NC(N)=Nc1nc(CSCCC(N)=NS(N)(=O)=O)cs1` [Famotidine]: the inhibition at 10 µM stood at 39.2% in the assay with PBMCs from CLL patients (setting [1]), 17.1% in the assay on PBMCs from CML patients (setting [2]), 5.3% in the assay on PBMCs from AML patients (setting [3]) and 13.4% in the assay with PBMCs from ALL patients (setting [4]).
Regarding `CCCCCCCCc1ccc(CCC(N)(CO)CO)cc1` [Fingolimod], the inhibition at 10 µM in the assay on PBMCs from CLL patients (setting [1]) is 47.9%; in the assay with PBMCs from CML patients (setting [2]), 76.1%; with PBMCs from AML patients (setting [3]) it was 81.5%; with PBMCs from ALL patients (setting [4]), 58.9%.
As to `O=C(NCC1CCCCN1)c1cc(OCC(F)(F)F)ccc1OCC(F)(F)F` (centres unmarked) [Flecainide Acetate], the inhibition at 10 µM in the assay with PBMCs from CLL patients (setting [1]) is 50.2%; with PBMCs from CML patients (setting [2]), -1%; in the assay with PBMCs from AML patients (setting [3]), 13%; in the assay with PBMCs from ALL patients (setting [4]), -18.3%.
`Nc1nc(F)nc2c1ncn2[C@@H]1O[C@H](COP(=O)(O)O)[C@@H](O)[C@@H]1O` [Fludarabine Phosphate]: the inhibition at 10 µM with PBMCs from CLL patients (setting [1]) worked out at 17.3%; in the assay on PBMCs from CML patients (setting [2]), 19.1%; with PBMCs from AML patients (setting [3]), 21.8%; with PBMCs from ALL patients (setting [4]), 53.9%.
The like results for `NS(=O)(=O)c1cc(C(=O)O)c(NCc2ccco2)cc1Cl` [Furosemide] were, in that order, 50.3%, -38.4%, -39% and -31.3%.
With `Oc1c(Cl)cc(Cl)c(Cl)c1Cc1c(O)c(Cl)cc(Cl)c1Cl` [Hexachlorophene], the inhibition at 10 µM is -13.5% with PBMCs from CLL patients, 26.3% with PBMCs from CML patients, 35% in the assay on PBMCs from AML patients and 23% with PBMCs from ALL patients.
Regarding `CC(=O)[C@]1(O)Cc2c(O)c3c(c(O)c2[C@@H](O[C@H]2C[C@H](N)[C@H](O)[C@H](C)O2)C1)C(=O)c1ccccc1C3=O` [Idarubicin HCl], the inhibition at 10 µM amounted to 54.8% with PBMCs from CLL patients (setting [1]), 43.5% in the assay with PBMCs from CML patients (setting [2]), 79% with PBMCs from AML patients (setting [3]) and 73.5% in the assay on PBMCs from ALL patients (setting [4]).
Take `CN(C)CCCN1c2ccccc2CCc2ccccc21` [Imipramine HCl]: the inhibition at 10 µM with PBMCs from CML patients (setting [2]) was 13.7%; in the assay on PBMCs from AML patients (setting [3]), 1.9%; in the assay with PBMCs from ALL patients (setting [4]), -6%.
As for `CNC[C@H](O)c1ccc(O)c(O)c1.O=C(O)C(O)C(O)C(=O)O` [L-(−)-Epinephrine-(+)-Bitartrate], the “% Inhibition, CLL Average” value in the assay on PBMCs from CLL patients (setting [1]) is given as 45.4%. Also, the “% Inhibition, CML Average” value in the assay on PBMCs from CML patients (setting [2]) stood at 68.4%. The “% Inhibition, AML Average” value with PBMCs from AML patients (setting [3]) is −2.8%. In the assay on PBMCs from ALL patients (setting [4]), the “% Inhibition, ALL Average” value is recorded as 80.5%.
As for `CS(=O)(=O)CCNCc1ccc(-c2ccc3ncnc(Nc4ccc(OCc5cccc(F)c5)c(Cl)c4)c3c2)o1` [Lapatinib Ditosylate], the inhibition at 10 µM in the assay with PBMCs from CLL patients (setting [1]) is 6.9%; in the assay on PBMCs from CML patients (setting [2]), 76.6%; with PBMCs from AML patients (setting [3]), -76.1%; with PBMCs from ALL patients (setting [4]) it was 35.1%.
For `CC(C)(C)NC[C@H](O)COc1cccc2c1CCCC2=O` [Levobunolol HCl], the inhibition at 10 µM with PBMCs from CLL patients (setting [1]) is 49.6%; in the assay with PBMCs from CML patients (setting [2]), -32.1%; with PBMCs from AML patients (setting [3]) it was 1.8%; in the assay on PBMCs from ALL patients (setting [4]), -8%.
Take `CN(C)C(=O)C(CCN1CCC(O)(c2ccc(Cl)cc2)CC1)(c1ccccc1)c1ccccc1` [Loperamide HCl]: the inhibition at 10 µM in the assay with PBMCs from CLL patients (setting [1]) turned out to be 16.3%; with PBMCs from CML patients (setting [2]), 69.3%; in the assay on PBMCs from AML patients (setting [3]) it was 18.5%; in the assay with PBMCs from ALL patients (setting [4]) it was 54.9%.
For the compound `CO[C@H]1/C=C/O[C@@]2(C)Oc3c(C)c(O)c4c(O)c(c(/C=N/N5CCN(C6CCCC6)CC5)c(O)c4c3C2=O)NC(=O)/C(C)=C\C=C\[C@H](C)[C@H](O)[C@@H](C)[C@@H](O)[C@@H](C)[C@H](OC(C)=O)[C@@H]1C` [Rifapentine], the inhibition at 10 µM was 12.3% with PBMCs from CLL patients (setting [1]), 76.5% in the assay with PBMCs from CML patients (setting [2]) and -3.2% with PBMCs from AML patients (setting [3]).

For the origin of these results see patent US10639382B2, “Method for treating leukemia” (National Guard Health Affairs, priority 2017, dated 2020).
